Source: patent US20240368150A1 (Hoffmann-La Roche Inc., priority 2021, published 2024)
Like-named read-outs stand apart in the source and are kept apart here.

Tests used:
[1] = test system: primary human T-cells; assay: Proliferation assay after 5 days (CellTiter-Glo, CD3 stimulation; PBS counter screen); type: cell-based; details: Homo sapiens, T-cell, 120 h, CD3 stimulation; for Emax: 5 days, normalized to reference compound A1 as stimulator control = 100%, DMSO neutral control, read-out: Emax proliferation (% activation); for EC50: primary human T-cells, CellTiter-Glo after 5 days, EC50 of fitted sigmoidal curve, read-out: Tcell Proliferation CD3 EC50
In short: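 After compound addition to medium-only plates, cells are cultured 5 days, equilibrated to room temperature, mixed with an equal volume of CellTiter-Glo 2.0 and rocked 15 min before luminescence is read. Signal reflects ATP content, taken as proportional to cell number.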

[2] = test system: primary human T-cells

Row | SMILES | Emax [1] [%] | EC50 [1] [nM] | EC50 [2] [nM]
1 | COC(=O)N1CC(c2nnc(-c3cc4c(cc3F)S(=O)(=O)C[C@H](N)C(=O)N4Cc3ccc(Cl)cc3)o2)C1 [Example 172, methyl 3-[5-[(3R)-3-amino-5-[(4-chlorophenyl)methyl]-8-fluoro-1,1,4-trioxo-2,3-dihydro-1λ^6,5-benzothiazepin-7-yl]-1,3,4-oxadiazol-2-yl]azetidine-1-carboxylate] | 190 | 2940 | 1670
2 | CC(=O)N1CC2CC(c3nnc(-c4cc5c(cc4F)S(=O)(=O)C[C@H](N)C(=O)N5Cc4ccc(Cl)cc4)o3)(C2)C1 [Example 173, (3R)-7-[5-(3-acetyl-3-azabicyclo[3.1.1]heptan-1-yl)-1,3,4-oxadiazol-2-yl]-3-amino-5-1[(4-chlorophenyl)methyl]-8-fluoro-1,1-dioxo-2,3-dihydro-1λ^6,5-benzothiazepin-4-one] | 89 | 596 | 2180
3 | CS(=O)(=O)N1CC2CC(c3nnc(-c4cc5c(cc4F)S(=O)(=O)C[C@H](N)C(=O)N5Cc4ccc(Cl)cc4)o3)(C2)C1 [Example 174, (3R)-3-amino-5-[(4-chlorophenyl)methyl]-8-fluoro-7-[5-(3-methylsulfonyl-3-azabicyclo[3.1.1]heptan-1-yl)-1,3,4-oxadiazol-2-yl]-1,1-dioxo-2,3-dihydro-1λ^6,5-benzothiazepin-4-one] | 93 | 4460 | 2190
4 | CC(=O)N1CC(c2nnc(-c3cc4c(cc3F)S(=O)(=O)C[C@H](N)C(=O)N4Cc3ccc(Cl)cc3)o2)C2(CC2)C1 (stereo partly drawn) [Example 175, (3R)-7-[5-(5-acetyl-5-azaspiro[2.4]heptan-7-yl)-1,3,4-oxadiazol-2-yl]-3-amino-5-[(4-chlorophenyl)methyl]-8-fluoro-1,1-dioxo-2,3-dihydro-1λ^6,5-benzothiazepin-4-one] | 62 | 7040 | > 10000
5 | CS(=O)(=O)N1CC(c2nnc(-c3cc4c(cc3F)S(=O)(=O)C[C@H](N)C(=O)N4Cc3ccc(Cl)cc3)o2)C2(CC2)C1 (stereo partly drawn) [Example 176, (3R)-3-amino-5-[(4-chlorophenyl)methyl]-8-fluoro-7-[5-(5-methylsulfonyl-5-azaspiro[2.4]heptan-7-yl)-1,3,4-oxadiazol-2-yl]-1,1-dioxo-2,3-dihydro-1λ^6,5-benzothiazepin-4-one] | 70 | 4280 | 2510
6 | COC(=O)N1CC(c2nnc(-c3cc4c(cc3F)S(=O)(=O)C[C@H](N)C(=O)N4Cc3ccc(Cl)cc3)o2)C2(CC2)C1 (stereo partly drawn) [Example 177, methyl 7-[5-[(3R)-3-amino-5-[(4-chlorophenyl)methyl]-8-fluoro-1,1,4-trioxo-2,3-dihydro-1λ^6,5-benzothiazepin-7-yl]-1,3,4-oxadiazol-2-yl]-5-azaspiro[2.4]heptane-5-carboxylate] | 68 | 788 | 1440
7 | COC(=O)N1CCC2CC2(c2nnc(-c3cc4c(cc3F)S(=O)(=O)C[C@H](N)C(=O)N4Cc3ccc(Cl)cc3)o2)C1 (stereo partly drawn) [Example 178, methyl 1-[5-[(3R)-3-amino-5-[(4-chlorophenyl)methyl]-8-fluoro-1,1,4-trioxo-2,3-dihydro-1λ^6,5-benzothiazepin-7-yl]-1,3,4-oxadiazol-2-yl]-3-azabicyclo[4.1.0]heptane-3-carboxylate] | 105 | 206 | 333
8 | CS(=O)(=O)N1CCC2CC2(c2nnc(-c3cc4c(cc3F)S(=O)(=O)C[C@H](N)C(=O)N4Cc3ccc(Cl)cc3)o2)C1 (stereo partly drawn) [Example 179, (3R)-3-amino-5-[(4-chlorophenyl)methyl]-8-fluoro-7-[5-(3-methylsulfonyl-3-azabicyclo[4.1.0]heptan-1-yl)-1,3,4-oxadiazol-2-yl]-1,1-dioxo-2,3-dihydro-1λ^6,5-benzothiazepin-4-one] | 80 | 1580 | 335
9 | CC(=O)N1CCC2CC2(c2nnc(-c3cc4c(cc3F)S(=O)(=O)C[C@H](N)C(=O)N4Cc3ccc(Cl)cc3)o2)C1 (stereo partly drawn) [Example 180, (3R)-7-[5-(3-acetyl-3-azabicyclo[4.1.0]heptan-1-yl)-1,3,4-oxadiazol-2-yl]-3-amino-5-[(4-chlorophenyl)methyl]-8-fluoro-1,1-dioxo-2,3-dihydro-1λ^6,5-benzothiazepin-4-one] | 103 | 5710 | 2380
10 | CS(=O)(=O)N1CC2CC2(c2nnc(-c3cc4c(cc3F)S(=O)(=O)C[C@H](N)C(=O)N4Cc3ccc(Cl)cc3)o2)C1 (stereo partly drawn) [Example 181, (3R)-3-amino-5-[(4-chlorophenyl)methyl]-8-fluoro-7-[5-(3-methylsulfonyl-3-azabicyclo[3.1.0]hexan-1-yl)-1,3,4-oxadiazol-2-yl]-1,1-dioxo-2,3-dihydro--benzothiazepin-4-one] | 107 | 7830 | 1990
11 | CC(=O)N1CC2CC2(c2nnc(-c3cc4c(cc3F)S(=O)(=O)C[C@H](N)C(=O)N4Cc3ccc(Cl)cc3)o2)C1 (stereo partly drawn) [Example 182, (3R)-7-[5-(3-acetyl-3-azabicyclo[3.1.0]hexan-1-yl)-1,3,4-oxadiazol-2-yl]-3-amino-5-[(4-chlorophenyl)methyl]-8-fluoro-1,1-dioxo-2,3-dihydro-1λ^6,5-benzothiazepin-4-one] | 38 | > 10000 | 1590
12 | COC(=O)N1CC2CC2(c2nnc(-c3cc4c(cc3F)S(=O)(=O)C[C@H](N)C(=O)N4Cc3ccc(Cl)cc3)o2)C1 (stereo partly drawn) [Example 183, methyl 1-[5-[(3R)-3-amino-5-[(4-chlorophenyl)methyl]-8-fluoro-1,1,4-trioxo-2,3-dihydro-1λ^6,5-benzothiazepin-7-yl]-1,3,4-oxadiazol-2-yl]-3-azabicyclo[3.1.0]hexane-3-carboxylate] | 131 | 336 | 43
13 | N[C@H]1CS(=O)(=O)c2cc(F)c(-c3nnc(C(F)(F)C(F)(F)F)o3)cc2N(Cc2ccc(Cl)cc2)C1=O [Example 185, (3R)-3-amino-5-[(4-chlorophenyl)methyl]-8-fluoro-1,1-dioxo-7-[5-(1,1,2,2,2-pentafluoroethyl)-1,3,4-oxadiazol-2-yl]-2,3-dihydro-1λ^6,5-benzothiazepin-4-one] | 13 | > 10000 | 4930
14 | CC(C)(CO)c1nnc(-c2cc3c(cc2F)S(=O)(=O)C[C@H](N)C(=O)N3Cc2ccc(C#N)cc2)o1 [Example 188, 4-[[(3R)-3-amino-8-fluoro-7-[5-(2-hydroxy-1,1-dimethyl-ethyl)-1,3,4-oxadiazol-2-yl]-1,1,4-trioxo-2,3-dihydro-1λ^6,5-benzothiazepin-5-yl]methyl]benzonitrile] | 29 | > 10000 | 3180
15 | CC(C)(C)c1nnc(-c2cc3c(cc2F)S(=O)(=O)C[C@H](N)C(=O)N3Cc2ccc(OCCCCCCCCCCCNC(=O)CCC3=CC4=Cc5ccc(-c6ccc[nH]6)n5[B-](F)(F)[N+]4=C3)cc2)o1 [Example 189, 3-[2,2-difluoro-12-(1H-pyrrol-2-yl)-1-aza-3-azonia-2-boranuidatricyclo[7.3.0.03,7]dodeca-3,5,7,9,11-pentaen-5-yl]-N-[11-[4-[[(3R)-3-amino-7-(5-tert-butyl-1,3,4-oxadiazol-2-yl)-8-fluoro-1,1,4-trioxo-2,3-dihydro-1λ^6,5-benzothiazepin-5-yl]methyl]phenoxy]undecyl]propanamide] | 134 | 680 | > 2730
16 | C[C@@H]1[C@H](N)C(=O)N(Cc2ccc(Cl)cc2)c2cc(-c3nnc(C(C)(C)C)o3)c(F)cc2S1(=O)=O [Example 190, (2R,3R)-3-amino-7-(5-tert-butyl-1,3,4-oxadiazol-2-yl)-5-[(4-chlorophenyl)methyl]-8-fluoro-2-methyl-1,1-dioxo-2,3-dihydro-1λ^6,5-benzothiazepin-4-one] | 114 | 1160 | 1640
17 | N[C@H]1CS(=O)(=O)c2cc(F)c(-c3nnc(N4CCC4)o3)cc2N(Cc2ccc(Cl)cc2)C1=O [Example 191, (3R)-3-amino-7-[5-(azetidin-1-yl)-1,3,4-oxadiazol-2-yl]-5-[(4-chlorophenyl)methyl]-8-fluoro-1,1-dioxo-2,3-dihydro-1λ^6,5-benzothiazepin-4-one] | 184 | 1280 | 11400
18 | N[C@H]1CS(=O)(=O)c2cc(F)c(-c3noc(N4CCOC5CC54)n3)cc2N(Cc2ccc(Cl)cc2)C1=O (stereo partly drawn) [Example 192, (3R)-3-amino-5-[(4-chlorophenyl)methyl]-8-fluoro-7-[5-(2-oxa-5-azabicyclo[4.1.0]heptan-5-yl)-1,2,4-oxadiazol-3-yl]-1,1-dioxo-2,3-dihydro-1λ^6,5-benzothiazepin-4-one] | 110 | 100 | 125
19 | N[C@H]1CS(=O)(=O)c2cc(F)c(-c3noc(N4CCOC(C(F)(F)F)C4)n3)cc2N(Cc2ccc(Cl)cc2)C1=O (stereo partly drawn) [Example 193, (3R)-3-amino-5-[(4-chlorophenyl)methyl]-8-fluoro-1,1-dioxo-7-[5-[2-(trifluoromethyl)morpholin-4-yl]-1,2,4-oxadiazol-3-yl]-2,3-dihydro-1λ^6,5-benzothiazepin-4-one] | 108 | 21.3 | 38.7
20 | N[C@H]1CS(=O)(=O)c2cc(F)c(-c3noc(N4CCOC5(CC5)C4)n3)cc2N(Cc2ccc(Cl)cc2)C1=O [Example 194, (3R)-3-amino-5-[(4-chlorophenyl)methyl]-8-fluoro-7-[5-(4-oxa-7-azaspiro[2.5]octan-7-yl)-1,2,4-oxadiazol-3-yl]-1,1-dioxo-2,3-dihydro-1λ^6,5-benzothiazepin-4-one] | 79 | 15.2 | 40.7
